Columns and labels:
[1] = test system: glyceraldehyde-3-phosphate dehydrogenase (GAPDH); settings: reported in J. Biol. Chem. 273:5821-5828; cited from earlier work
[2] = test system: homozygous col6a1-/- mice (Col6a1-deficient mouse model), diaphragm muscle; assay: Apoptotic (TUNEL-positive) nuclei in diaphragm muscle of col6a1-/- mice; format: in vivo; settings: 5 days
Excerpt: (§1) Homozyguous col6a1−/− mutants lack triple-helical collagen VI resulting in a phenotype that resembles BM/UCMD in human patients with collagen VI deficiency. Specifically, col6a1−/− mice show histological features of myopathy such as fiber necrosis and phagocytosis and a pronounced variation in fiber diameter. Muscles also show signs of stimulated regeneration of fibers and necrotic fibers are particularly frequent in the diaphragm thereby resembling more the clinical picture of UCMD than BM (Bertini E., Pepe G. (2002) Collagen type VI and related disorders: Bethlem myopathy and Ullrich scleroatonic muscular dystrophy Europ. J. Paediatric Neurology 6:193-198). […] This mitochondrial dysfunction might be caused by slight increase in of sarcolemmal calcium influx followed by calcium overload eventually causing opening of the mitochondrial permeability transition pore (MPTP) and finally apoptosis.
The effect of N-(dibenz(b,f)oxepin-10-ylmethyl)-N-methyl-N-prop-2-ynylammonium maleate (omigapil) was tested on the number of apoptotic nuclei in muscle of a Col6a1-deficient mouse model. Starting at 16±4 weeks of age, homozygous col6a1−/− mice were treated with omigapil. For this, omigapil was dissolved in 1% w/v ethanol to a final concentration of 20 μg/ml. Mutant mice received a final dose of 1 mg/kg or 10 mg/kg omigapil given twice daily by gavage following the guidance as described elsewhere (Sagot Y. et al. (2000) An orally active anti-apoptotic molecule (CGP 3466B) preserves mitochondria and enhances survival in an animal model of motoneuron disease. Br. J. Pharmacol. 131:721-728). For comparison col6a1−/− mice received the equivalent amount of vehicle only. After five days of application mice were sacrificed, the diaphragm removed, sectioned and stained for apoptotic nuclei using TUNEL staining. The number of apoptotic nuclei per mm2 area in the diaphragm muscle was determined as described (Irwin W A et al. (2003) Mitochondrial dysfunction and apoptosis in myopathic mice with collagen VI deficiency. Nature Genetics 35:367-371).

[3] = test system: Col6a1-deficient mice, mitochondria in muscle fibers of the diaphragm muscle; assay: Ultrastructural appearance of mitochondria in diaphragm muscle fibers of Col6a1-deficient mice; format: in vivo, mouse; settings: for percentage of myofibers with pathologically altered mitochondria vs vehicle-treated animals: Col6a1-deficient mice, diaphragm, FIG. 2
Excerpt: as §1
The effect of N-(dibenz(b,f)oxepin-10-ylmethyl)-N-methyl-N-prop-2-ynylammonium maleate (omigapil) was tested on the effect to normalize ultrastructural defects in mitochondria of a Col6a1-deficient mouse model. For this, Col6a1-deficient mice were treated with omigapil as described in Example 1.
The ultrastructural appearance of mitochondria in muscle fibers of the diaphragm muscle was determined and quantified as described (Irwin W A et al. (2003) Mitochondrial dysfunction and apoptosis in myopathic mice with collagen VI deficiency. Nature Genetics 35:367-371).

Molecule: C#CCN(C)CC1=Cc2ccccc2Oc2ccccc21 [compound of formula (I), N-(dibenz(b,f)oxepin-10-ylmethyl)-N-methyl-N-prop-2-ynylamine]
- binding to glyceraldehyde-3-phosphate dehydrogenase (GAPDH) [1]: binds to glyceraldehyde-3-phosphate dehydrogenase (GAPDH)

Molecule: N-(dibenz(b,f)oxepin-10-ylmethyl)-N-methyl-N-prop-2-ynylammonium maleate [omigapil]
- number of apoptotic nuclei in diaphragm muscle (TUNEL staining) vs vehicle-treated col6a1-/- mice ([2]; 1 mg/kg twice daily by gavage, N=3, FIG. 1): significantly reduced
- number of apoptotic nuclei in diaphragm muscle (TUNEL staining) vs vehicle-treated col6a1-/- mice ([2]; 10 mg/kg twice daily by gavage, N=4, FIG. 1): significantly reduced
- number of apoptotic nuclei in omigapil-treated animals relative to wild-type animal ([2]; omigapil-treated, diaphragm muscle): comparable to the number seen in diaphragm muscle of a wild-type animal
- ultrastructural appearance of mitochondria in muscle fibers of the diaphragm muscle ([3]; Col6a1-deficient mice treated as in Example 1): normalized
- percentage of myofibers with pathologically altered mitochondria vs vehicle-treated animals ([3]; 1 mg/kg (animals B1-B2)): clearly reduced
- percentage of myofibers with pathologically altered mitochondria vs vehicle-treated animals ([3]; 10 mg/kg (animals A1-A3)): clearly reduced

From US7875648B2, “N-(dibenz(b,f)oxepin-10-ylmethyl)-N-methyl-N-prop-2-ynylamine (omigapil) for the treatment of congenital muscular dystrophy or myopathy resulting from collagen VI deficiency” (Santhera Pharmaceuticals (Schweiz) AG, priority 2006, dated 2011)
